Data set [1] relates to Mycobacterium avium (M. avium). Briefly: MABA MIC against M. avium. It is filed as cell-based. The settings on record: for MIC: Mycobacterium avium, read-out: M. avium MIC.
Another data set deals with M. tb V4207/DS. Briefly: microbe, parasite or virus in culture. It is filed as cell-based. Particulars: Mycobacterium tuberculosis, read-out: M. tb MIC V4207/DS.
Data set [2] concerns Mycobacterium abscessus (M. abs). Nature of the data set: MABA MIC against M. abs. In kind it is cell-based. The settings on record: for MIC: Mycobacteroides abscessus, read-out: M. abs MIC. For orientation: Resazurin is reduced to fluorescent resorufin, in cell work by metabolically active cells.
For a further data set, the system named is Vero cells. Nature of the data set: Cytotoxicity on Vero cells. It is filed as cell-based. Particulars: SI = IC50(Vero)/MIC(H37Rv).
The test system of data set [3] is M. tb H37Rv strain. Briefly: Microplate alamarBlue assay. It is filed as cell-based, Mycobacterium tuberculosis.
The subject of data set [4] is DS- and DR-TB. Briefly: MIC against both DS- and DR-TB as stated in text. Particulars: Mycobacterium tuberculosis, read-out: MIC against both DS- and DR-TB.
The test system of the next data set is XDR M. tb strains. Briefly: microbe, parasite or virus in culture. The settings on record: Mycobacterium tuberculosis, read-out: MIC against XDR M. tb strains. In kind it is cell-based.
The next data set in a line: physchem. The settings on record: water, kinetic from dmso stock.
Data set [5] has as its system M. tb H37Rv strain. Particulars: cited from earlier work.
The conditions of data set [6]: cited from earlier work.
The test system of data set [7] is DS- and DR-TB. The settings on record: cited from earlier work.
For data set [8] the following is noted: cited from earlier work. The source holds these as a separate data set.
Where [9] appears, read: Mycobacterium tuberculosis, H37RV.
Where [10] appears, read: M. tb H37Rv, MABA, at least 90% growth inhibition, average of three measurements.

≈ marks a conversion by molar mass, not a printed value. Where “and” joins values, the source holds several entries; their conditions need not be identical. Identical values can stand only once. Like-named read-outs stand apart in the source and are kept apart here. Bounds are passed on as bounds.

Take `O=C(Nc1cc(Cl)cc(Cl)c1)NC12CC3CC(CC(C3)C1)C2` [10a, 1-(1-Adamantyl)-3-(3,5-dichlorophenyl)urea]: the MIC in data set [1] was 47.2 µM (≈ 16 µg/mL); in the data set on M. tb V4207/DS, 1.47 µM (≈ 0.499 µg/mL); in data set [2] it was more than 189 µM. Besides, the “M. abs MIC” value in data set [2] (MABA) is more than 189 µM. Further, the “Selectivity index (SI)” value with Vero cells is on record as 4.0.

For the compound `O=C(NC12CC3CC(CC(C3)C1)C2)c1cc2c(F)cc(F)cc2[nH]1` [8k, N-(1-Adamantyl)-4,6-difluoro-1H-indole-2-carboxamide], the MIC with M. tb H37Rv strain [3] (setting [9]) was 0.024 µM (≈ 0.00793 µg/mL); with DS- and DR-TB [4], 0.012 to 0.024 µM (≈ 0.00396 to 0.00793 µg/mL); in [1], more than 194 µM; in the data set on XDR M. tb strains it was 0.012 µM (≈ 0.00396 µg/mL); with M. tb V4207/DS, 0.024 µM (≈ 0.00793 µg/mL); in [2] it was more than 194 µM. Moreover, the “Selectivity index (SI)” value in the data set with Vero cells is recorded as not below 8205. Also, the solubility (kinetic) (as a rule, solubility judged after dilution from a stock solution rather than from solid) in the data set “physchem” came to 7 µg/mL (≈ 21.2 µM).

Compound `O=C(NC12CC3CC(CC(O)(C3)C1)C2)c1cc2ccccc2[nH]1` [8a, N-(3-hydroxyadamantan-1-yl)-1H-indole-2-carboxamide] gave an MIC in the data set with M. tb H37Rv strain [3] (setting [9]) of 51.5 µM (≈ 16 µg/mL).

`O=C(Nc1cc(Cl)cc(Cl)c1)NC12CC3CC(CC(O)(C3)C1)C2` [10b, 1-(3,5-dichlorophenyl)-3-(3-hydroxyadamantan-1-yl)urea] gave an MIC against M. tb H37Rv strain [3] (setting [9]) of more than 90 µM.

With `O=C(CC12CC3CC(CC(C3)C1)C2)Nc1nc2ccccc2[nH]1` [13b, 2-(1-Adamantyl)-N-(1H-benzo[d]imidazol-2-yl)acetamide], the MIC with M. tb H37Rv strain [3] (setting [10]) and against M. tb H37Rv strain [3] (setting [9]) was more than 103 µM throughout.

As for `CC1(C)CCC(NC(=O)c2cc3c(Cl)cc(Cl)cc3[nH]2)CC1` [compound 1], the MIC in the data set on M. tb H37Rv strain [5] (ref 23) was 0.015 [23] μM.

In the data set on M. tb H37Rv strain [3] (setting [9]), `COc1cccc2[nH]c(C(=O)NC34CC5CC(CC(O)(C5)C3)C4)cc12` [8c, N-(3-hydroxyadamantan-1-yl)-4-methoxy-1H-indole-2-carboxamide] gave an MIC of 11.7 µM (≈ 3.98 µg/mL). In “physchem”, this compound gave a solubility (kinetic) of 30 µg/mL (≈ 88.1 µM).

Regarding `Cc1ccc2[nH]c(C(=O)NC34CC5CC(CC(C5)C3)C4)cc2c1` [8f, N-(1-Adamantyl)-5-methyl-1H-indole-2-carboxamide], the MIC against M. tb H37Rv strain [3] (setting [9]) is 0.2 µM (≈ 0.0617 µg/mL); in [1], more than 207 µM; in the data set on M. tb V4207/DS it was 0.2 µM (≈ 0.0617 µg/mL); in data set [2], more than 207 µM. Further, in the data set on Vero cells, the “Selectivity index (SI)” value is not below 1024.

`Cc1ccc2[nH]c(C(=O)NC34CC5CC(CC(O)(C5)C3)C4)cc2c1` [8g, N-(3-hydroxyadamantan-1-yl)-5-methyl-1H-indole-2-carboxamide] registered an MIC with M. tb H37Rv strain [3] (setting [9]) of 24.7 µM (≈ 8.01 µg/mL).

`O=C(Nc1nc2ccccc2[nH]1)NC12CC3CC(CC(C3)C1)C2` [compound 12, 1-(1-adamantyl)-3-(1H-benzo[d]imidazol-2-yl)urea] returned an MIC against M. tb H37Rv strain [3] (setting [9]) of 25.8 µM (≈ 8.01 µg/mL).

Regarding `COc1ccc2[nH]c(C(=O)NC34CC5CC(CC(O)(C5)C3)C4)cc2c1` [8e, N-(3-hydroxyadamantan-1-yl)-5-methoxy-1H-indole-2-carboxamide], the MIC against M. tb H37Rv strain [3] (setting [9]) was 47 µM (≈ 16 µg/mL).

Turning to `O=C(NC12CC3CC(CC(O)(C3)C1)C2)c1cc2c(Cl)cc(Cl)cc2[nH]1` [8j, 4,6-dichloro-N-(3-hydroxyadamantan-1-yl)-1H-indole-2-carboxamide], the MIC against M. tb H37Rv strain [3] (setting [10]) is 1.32 µM (≈ 0.501 µg/mL); in data set [1], more than 169 µM; with XDR M. tb strains it was 0.66 µM (≈ 0.25 µg/mL); in the data set on M. tb V4207/DS, 1.32 µM (≈ 0.501 µg/mL); in data set [2] it was more than 169 µM. Also, the “Selectivity index (SI)” value with Vero cells is not below 128.

Compound `O=C(Nc1nc2ccccc2[nH]1)C12CC3CC(CC(C3)C1)C2` [13a, N-(1H-benzo[d]imidazol-2-yl)adamantane-1-carboxamide] showed an MIC against M. tb H37Rv strain [3] (setting [9]) of 13.5 µM (≈ 3.99 µg/mL).

`COc1nc2ccc(Br)cc2cc1[C@@H](c1ccccc1)[C@@](O)(CCN(C)C)c1cccc2ccccc12` [bedaquiline]: the logP (commonly the decadic logarithm of the partition coefficient of the neutral form, usually between octanol and water) in data set [6] is more than 7. The “MIC against both DS- and DR-TB” value in the data set on DS- and DR-TB [7] is 0.11 µM (≈ 0.0611 µg/mL).

Consider `COc1ccc2[nH]c(C(=O)NC34CC5CC(CC(C5)C3)C4)cc2c1` [8d, N-(1-Adamantyl)-5-methoxy-1H-indole-2-carboxamide], for which the MIC in the data set on M. tb H37Rv strain [3] (setting [9]) is 0.77 µM (≈ 0.25 µg/mL); in data set [1] it was more than 197 µM; in the data set with M. tb V4207/DS, 0.39 to 0.77 µM (≈ 0.127 to 0.25 µg/mL); in [2] it was more than 197 µM. Also, the “Selectivity index (SI)” value in the data set on Vero cells is reported as not below 256.

For `COc1cccc2[nH]c(C(=O)NC34CC5CC(CC(C5)C3)C4)cc12` [8b, N-(1-Adamantyl)-4-methoxy-1H-indole-2-carboxamide], the MIC against M. tb H37Rv strain [3] (setting [9]) was 0.096 µM (≈ 0.0311 µg/mL); in data set [1] it was more than 197 µM; with M. tb V4207/DS, 0.096 µM (≈ 0.0311 µg/mL); in [2], 12.3 µM (≈ 3.99 µg/mL). For the same compound, the “M. avium MIC” value in [1] (MABA) is more than 197 µM. For the same compound, the “Selectivity index (SI)” value with Vero cells is recorded as not below 2048. The compound further had a kinetic solubility in “physchem” of 5 µg/mL (≈ 15.4 µM).

Take `O=C(Nc1ccc(F)c(F)c1F)NC1C2CC3CC(C2)CC1C3` (centres unmarked) [compound 4]: the MIC with M. tb H37Rv strain [5] (ref 26, 43) was 0.03–0.3 [26, 43] μM.

For `O=C(NC12CC3CC(CC(O)(C3)C1)C2)c1cc2ccc(Br)cc2[nH]1` [8i, 6-bromo-N-(3-hydroxyadamantan-1-yl)-1H-indole-2-carboxamide], the MIC against M. tb H37Rv strain [3] (setting [9]) was 1.32 to 2.89 µM (≈ 0.514 to 1.13 µg/mL); in data set [1], more than 164 µM; with M. tb V4207/DS, 5.14 µM (≈ 2 µg/mL); in data set [2], more than 164 µM. Moreover, the “Selectivity index (SI)” value in the data set on Vero cells was 32.

Take `O=C(NC12CC3CC(CC(C3)C1)C2)c1cc2c(Cl)cc(Cl)cc2[nH]1` [compound 2, N-(1-adamantyl)-4,6-dichloroindole-2-carboxamide]: the MIC with M. tb H37Rv strain [5] (ref 45) was 0.011 μM and 0.011 [45] μM. Also, the in vivo activity result in [8] (due to poor bioavailability) and in data set [8] (likely due to poor bioavailability) was “inactive in vivo” throughout.

For `O=C(NC12CC3CC(CC(O)(C3)C1)C2)c1cc2c(F)cc(F)cc2[nH]1` [8l, 4,6-difluoro-N-(3-hydroxyadamantan-1-yl)-1H-indole-2-carboxamide], the MIC in data set [1] is more than 185 µM; with M. tb V4207/DS, 2.89 µM (≈ 1 µg/mL); in data set [2], more than 185 µM. Also, the “Selectivity index (SI)” value with Vero cells came out at 32. The same compound gave a kinetic solubility in the data set “physchem” of 19 µg/mL (≈ 54.9 µM).

Consider `O=C(NC12CC3CC(CC(O)(C3)C1)C2)c1cc2cc(Cl)ccc2[nH]1` [8h, 5-chloro-N-(3-hydroxyadamantan-1-yl)-1H-indole-2-carboxamide], for which the MIC against M. tb H37Rv strain [3] (setting [10]) and against M. tb H37Rv strain [3] (setting [9]) was more than 93 µM each time.

These data come from publication PMC7775894 (Bioorganic chemistry, 2020).
